Measured values: patent publication US10093713B2, “GIP-GLP-1 dual agonist compounds and methods” (priority 2013, dated 2018)
*1 amine or outer side, *2 acyl side, *3 side chain or, on linkers, in order; H or OH if unused. Where a SMILES comes first, the peptide text is derived from it. Side-chain parts run from the residue outwards. [ ]: non-standard residue; d: D form. The star is where a group is joined. C20 diacid = O=C(O)CCCCCCCCCCCCCCCCCCC(=O)*; γGlu = O=C(O)[C@H](CCC(=O)[*:2])N[*:1]; AEEA = NCCOCCOCC(=O)O; Aib = CC(C)(N)C(=O)O

Columns and labels:
[1] = biological target: T1, human GLP-1 R (Homo sapiens, UniProt P43220); assay: Human GLP-1 receptor (GLP-1 R) activity assay, cAMP induction (AlphaScreen) in HEK293 cells; format: cell-based; details: Table 3; most comprehensive data; read-out: hGLP-1-R cAMP EC50 average value
T1 construct: expressed in transfected cells
In short: (§1)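 Stable HEK293 clones expressing human GIP R or GLP-1 R, seeded 1 day before; cells washed in Tyrode's buffer (10 mM HEPES, pH 7.4), stimulated, then lysed. cAMP measured by AlphaScreen bead competition (1 h, room temperature, dark). EC50 = concentration giving half-maximal cAMP elevation, from curves of absolute cAMP (nM) vs log concentration.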

[2] = biological target: T2, human GIP R (Homo sapiens, UniProt P48546); assay: Human GIP receptor (GIP R) activity assay, cAMP induction (AlphaScreen) in HEK293 cells; format: cell-based; details: Table 3; most comprehensive data; read-out: hGIP-R cAMP EC50 average value
T2 construct: expressed in transfected cells
T2 sequence (P48546 22-466): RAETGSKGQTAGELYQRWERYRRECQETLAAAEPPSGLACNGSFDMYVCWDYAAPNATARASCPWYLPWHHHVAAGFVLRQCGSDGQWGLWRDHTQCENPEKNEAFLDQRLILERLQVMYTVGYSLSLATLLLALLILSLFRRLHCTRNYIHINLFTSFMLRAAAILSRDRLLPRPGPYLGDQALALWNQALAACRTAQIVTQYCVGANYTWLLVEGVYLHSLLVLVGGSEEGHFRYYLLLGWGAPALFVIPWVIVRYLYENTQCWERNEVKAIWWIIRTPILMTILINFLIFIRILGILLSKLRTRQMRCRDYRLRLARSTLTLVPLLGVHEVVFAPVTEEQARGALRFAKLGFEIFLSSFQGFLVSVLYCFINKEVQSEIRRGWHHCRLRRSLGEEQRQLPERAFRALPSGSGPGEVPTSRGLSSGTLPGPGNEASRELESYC
In short: as §1

T1 sequence (P43220 24-463): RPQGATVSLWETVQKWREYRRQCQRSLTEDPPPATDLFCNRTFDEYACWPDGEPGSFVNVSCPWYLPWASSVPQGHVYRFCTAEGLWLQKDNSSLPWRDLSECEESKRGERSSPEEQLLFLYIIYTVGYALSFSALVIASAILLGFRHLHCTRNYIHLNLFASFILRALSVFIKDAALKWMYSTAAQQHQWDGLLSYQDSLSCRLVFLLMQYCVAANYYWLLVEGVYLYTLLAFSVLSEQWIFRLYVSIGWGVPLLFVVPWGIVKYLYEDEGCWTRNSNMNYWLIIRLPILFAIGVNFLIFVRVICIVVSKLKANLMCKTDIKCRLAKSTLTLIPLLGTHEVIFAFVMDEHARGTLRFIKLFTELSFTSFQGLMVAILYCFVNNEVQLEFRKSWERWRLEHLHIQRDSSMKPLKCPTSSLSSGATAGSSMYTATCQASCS

SMILES | EC50 [1] | EC50 [2]
CC[C@H](C)[C@H](NC(=O)[C@H](CO)NC(=O)[C@H](Cc1ccc(O)cc1)NC(=O)[C@H](CC(=O)O)NC(=O)[C@H](CO)NC(=O)[C@@H](NC(=O)[C@H](Cc1ccccc1)NC(=O)[C@@H](NC(=O)CNC(=O)[C@H](CCC(=O)O)NC(=O)C(C)(C)NC(=O)[C@@H](N)Cc1ccc(O)cc1)[C@@H](C)O)[C@@H](C)O)C(=O)N[C@@H](C)C(=O)N[C@@H](CC(C)C)C(=O)N[C@@H](CC(=O)O)C(=O)N[C@@H](CCCCN)C(=O)N[C@@H](CCCCNC(=O)COCCOCCNC(=O)COCCOCCNC(=O)CC[C@H](NC(=O)CCCCCCCCCCCCCCCCCCC(=O)O)C(=O)O)C(=O)N[C@@H](C)C(=O)N[C@@H](CCC(N)=O)C(=O)N[C@@H](CCCNC(=N)N)C(=O)N[C@@H](C)C(=O)N[C@@H](Cc1ccccc1)C(=O)N[C@H](C(=O)N[C@@H](CCC(=O)O)C(=O)N[C@@H](Cc1c[nH]c2ccccc12)C(=O)N[C@@H](CC(C)C)C(=O)N[C@@H](CC(C)C)C(=O)N[C@@H](C)C(=O)N[C@@H](C)C(=O)N1CCC[C@H]1C(=O)N[C@@H](CO)C(=O)N[C@@H](CO)C(=O)NCC(=O)N[C@@H](C)C(=O)N1CCC[C@H]1C(=O)N1CCC[C@H]1C(=O)N1CCC[C@H]1C(=O)N[C@@H](CO)C(N)=O)C(C)C [Compound 40] (H-Y[Aib]EGTFTSDYSIALDKK([AEEA-AEEA-γGlu-C20 diacid])AQRAFVEWLLAAPSSGAPPPS-NH2) | 0.021 nM | 0.023 nM
CC[C@H](C)[C@H](NC(=O)[C@H](CO)NC(=O)[C@H](Cc1ccc(O)cc1)NC(=O)[C@H](CC(=O)O)NC(=O)[C@H](CO)NC(=O)[C@@H](NC(=O)[C@H](Cc1ccccc1)NC(=O)[C@@H](NC(=O)CNC(=O)[C@H](CCC(=O)O)NC(=O)C(C)(C)NC(=O)[C@@H](N)Cc1ccc(O)cc1)[C@@H](C)O)[C@@H](C)O)C(=O)N[C@@H](C)C(=O)N[C@@H](CC(C)C)C(=O)N[C@@H](CC(=O)O)C(=O)N[C@@H](CCCCN)C(=O)N[C@@H](CCCCNC(=O)COCCOCCNC(=O)COCCOCCNC(=O)CC[C@H](NC(=O)CCCCCCCCCCCCCCCCCCC(=O)O)C(=O)O)C(=O)N[C@@H](C)C(=O)N[C@@H](C)C(=O)N[C@@H](CCCCN)C(=O)N[C@@H](CCC(=O)O)C(=O)N[C@@H](Cc1ccccc1)C(=O)N[C@H](C(=O)N[C@@H](CCC(=O)O)C(=O)N[C@@H](Cc1c[nH]c2ccccc12)C(=O)N[C@@H](CC(C)C)C(=O)N[C@@H](CC(C)C)C(=O)N[C@@H](CO)C(=O)N[C@@H](C)C(=O)NCC(=O)N1CCC[C@H]1C(=O)N[C@@H](CO)C(=O)N[C@@H](CO)C(=O)NCC(=O)N[C@@H](C)C(=O)N1CCC[C@H]1C(=O)N1CCC[C@H]1C(=O)N1CCC[C@H]1C(=O)N[C@@H](CO)C(N)=O)C(C)C [Compound 41] (H-Y[Aib]EGTFTSDYSIALDKK([AEEA-AEEA-γGlu-C20 diacid])AAKEFVEWLLSAGPSSGAPPPS-NH2) | 0.038 nM | 0.015 nM
CC[C@H](C)[C@H](NC(=O)[C@H](CO)NC(=O)[C@H](Cc1ccc(O)cc1)NC(=O)[C@H](CC(=O)O)NC(=O)[C@H](CO)NC(=O)[C@@H](NC(=O)[C@H](Cc1ccccc1)NC(=O)[C@@H](NC(=O)CNC(=O)[C@H](CCC(=O)O)NC(=O)C(C)(C)NC(=O)[C@@H](N)Cc1ccc(O)cc1)[C@@H](C)O)[C@@H](C)O)C(=O)N[C@@H](C)C(=O)N[C@@H](CC(C)C)C(=O)N[C@@H](CC(=O)O)C(=O)N[C@@H](CCCCN)C(=O)N[C@@H](CCCCNC(=O)COCCOCCNC(=O)COCCOCCNC(=O)CC[C@H](NC(=O)CCCCCCCCCCCCCCCCCCC(=O)O)C(=O)O)C(=O)N[C@@H](C)C(=O)N[C@@H](CCC(N)=O)C(=O)N[C@@H](CCCNC(=N)N)C(=O)N[C@@H](C)C(=O)N[C@@H](Cc1ccccc1)C(=O)N[C@H](C(=O)N[C@@H](CCC(=O)O)C(=O)N[C@@H](Cc1c[nH]c2ccccc12)C(=O)N[C@@H](CC(C)C)C(=O)N[C@@H](CC(C)C)C(=O)N[C@@H](C)C(=O)N[C@@H](CCC(N)=O)C(=O)NCC(=O)N1CCC[C@H]1C(=O)N[C@@H](CO)C(=O)N[C@@H](CO)C(=O)NCC(=O)N[C@@H](C)C(=O)N1CCC[C@H]1C(=O)N1CCC[C@H]1C(=O)N1CCC[C@H]1C(=O)N[C@@H](CO)C(N)=O)C(C)C [Compound 42] (H-Y[Aib]EGTFTSDYSIALDKK([AEEA-AEEA-γGlu-C20 diacid])AQRAFVEWLLAQGPSSGAPPPS-NH2) | 0.017 nM | 0.009 nM
CC[C@H](C)[C@H](NC(=O)[C@H](CO)NC(=O)[C@H](Cc1ccc(O)cc1)NC(=O)[C@H](CC(=O)O)NC(=O)[C@H](CO)NC(=O)[C@@H](NC(=O)[C@H](Cc1ccccc1)NC(=O)[C@@H](NC(=O)CNC(=O)[C@H](CCC(=O)O)NC(=O)C(C)(C)NC(=O)[C@@H](N)Cc1ccc(O)cc1)[C@@H](C)O)[C@@H](C)O)C(=O)N[C@@H](C)C(=O)N[C@@H](CC(C)C)C(=O)N[C@@H](CC(=O)O)C(=O)N[C@@H](CCC(=O)O)C(=O)N[C@@H](CCCCNC(=O)COCCOCCNC(=O)COCCOCCNC(=O)CC[C@H](NC(=O)CCCCCCCCCCCCCCCCCCC(=O)O)C(=O)O)C(=O)N[C@@H](C)C(=O)N[C@@H](CCC(N)=O)C(=O)N[C@@H](CCCNC(=N)N)C(=O)N[C@@H](C)C(=O)N[C@@H](Cc1ccccc1)C(=O)N[C@H](C(=O)N[C@@H](CCC(=O)O)C(=O)N[C@@H](Cc1c[nH]c2ccccc12)C(=O)N[C@@H](CC(C)C)C(=O)N[C@@H](CC(C)C)C(=O)N[C@@H](C)C(=O)N[C@@H](CCC(N)=O)C(=O)NCC(=O)N1CCC[C@H]1C(=O)N[C@@H](CO)C(=O)N[C@@H](CO)C(=O)NCC(=O)N[C@@H](C)C(=O)N1CCC[C@H]1C(=O)N1CCC[C@H]1C(=O)N1CCC[C@H]1C(=O)N[C@@H](CO)C(N)=O)C(C)C [Compound 43] (H-Y[Aib]EGTFTSDYSIALDEK([AEEA-AEEA-γGlu-C20 diacid])AQRAFVEWLLAQGPSSGAPPPS-NH2) | 0.016 nM | 0.005 nM
CC[C@H](C)[C@H](NC(=O)[C@H](CO)NC(=O)[C@H](Cc1ccc(O)cc1)NC(=O)[C@H](CC(=O)O)NC(=O)[C@H](CO)NC(=O)[C@@H](NC(=O)[C@H](Cc1ccccc1)NC(=O)[C@@H](NC(=O)CNC(=O)[C@H](CCC(=O)O)NC(=O)C(C)(C)NC(=O)[C@@H](N)Cc1ccc(O)cc1)[C@@H](C)O)[C@@H](C)O)C(=O)N[C@@H](C)C(=O)N[C@@H](CC(C)C)C(=O)N[C@@H](CC(=O)O)C(=O)N[C@@H](CCC(=O)O)C(=O)N[C@@H](CCCCNC(=O)COCCOCCNC(=O)COCCOCCNC(=O)CC[C@H](NC(=O)CCCCCCCCCCCCCCCCCCC(=O)O)C(=O)O)C(=O)N[C@@H](C)C(=O)N[C@@H](CCC(N)=O)C(=O)N[C@@H](CCCNC(=N)N)C(=O)N[C@@H](C)C(=O)N[C@@H](Cc1ccccc1)C(=O)N[C@H](C(=O)N[C@@H](CCC(=O)O)C(=O)N[C@@H](Cc1c[nH]c2ccccc12)C(=O)N[C@@H](CC(C)C)C(=O)N[C@@H](CC(C)C)C(=O)N[C@@H](C)C(=O)N[C@@H](C)C(=O)NCC(=O)N1CCC[C@H]1C(=O)N[C@@H](CO)C(=O)N[C@@H](CO)C(=O)NCC(=O)N[C@@H](C)C(=O)N1CCC[C@H]1C(=O)N1CCC[C@H]1C(=O)N1CCC[C@H]1C(=O)N[C@@H](CO)C(N)=O)C(C)C [Compound 44] (H-Y[Aib]EGTFTSDYSIALDEK([AEEA-AEEA-γGlu-C20 diacid])AQRAFVEWLLAAGPSSGAPPPS-NH2) | 0.015 nM | 0.007 nM
CC[C@H](C)[C@H](NC(=O)[C@H](CO)NC(=O)[C@H](Cc1ccc(O)cc1)NC(=O)[C@H](CC(=O)O)NC(=O)[C@H](CO)NC(=O)[C@@H](NC(=O)[C@H](Cc1ccccc1)NC(=O)[C@@H](NC(=O)CNC(=O)[C@H](CCC(=O)O)NC(=O)C(C)(C)NC(=O)[C@@H](N)Cc1ccc(O)cc1)[C@@H](C)O)[C@@H](C)O)C(=O)N[C@@H](C)C(=O)N[C@@H](CC(C)C)C(=O)N[C@@H](CC(=O)O)C(=O)N[C@@H](CCCCN)C(=O)N[C@@H](CCCCNC(=O)COCCOCCNC(=O)COCCOCCNC(=O)CC[C@H](NC(=O)CCCCCCCCCCCCCCCCCCC(=O)O)C(=O)O)C(=O)N[C@@H](C)C(=O)N[C@@H](CCC(N)=O)C(=O)N[C@@H](CCCCN)C(=O)N[C@@H](C)C(=O)N[C@@H](Cc1ccccc1)C(=O)N[C@H](C(=O)N[C@@H](CCC(=O)O)C(=O)N[C@@H](Cc1c[nH]c2ccccc12)C(=O)N[C@@H](CC(C)C)C(=O)N[C@@H](CC(C)C)C(=O)N[C@@H](C)C(=O)N[C@@H](C)C(=O)NCC(=O)N1CCC[C@H]1C(=O)N[C@@H](CO)C(=O)N[C@@H](CO)C(=O)NCC(=O)N[C@@H](C)C(=O)N1CCC[C@H]1C(=O)N1CCC[C@H]1C(=O)N1CCC[C@H]1C(=O)N[C@@H](CO)C(N)=O)C(C)C [Compound 45] (H-Y[Aib]EGTFTSDYSIALDKK([AEEA-AEEA-γGlu-C20 diacid])AQKAFVEWLLAAGPSSGAPPPS-NH2) | 0.024 nM | 0.005 nM
